Counter-ions that a name gives are not always drawn.

In this test the target is T1, rh beta tryptase (Homo sapiens, UniProt P20231).
T1 construct: purchased Promega
Briefly: Tryptase inhibition test (cleavage of N-p-tosyl-Gly-Pro-Lys-para-nitroaniline, p-nitroaniline measured at 405 nm). It counts as biochemical. As to conditions: pH 7.4, 37° C.; for inhibition at 10 µM / % Inhibition (10 μM): inhibition of rh beta tryptase at 10 μM test substance, substrate N-p-tosyl-Gly-Pro-Lys-para-nitroaniline 0.6 mM, 5 minutes; for IC50: concentration at which 50% of the tryptase enzyme activity is inhibited, substrate 0.6 mM. Put shortly:
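Screening at 10 μM gives percent inhibition, with IC50 derived for compounds above 70% inhibition. Enzyme: rh beta tryptase, 0.91 U/ml, pH 7.4 Tris HCl (100 mM), 5 mM Ca, 100 mg/ml heparin. After 5 min compound pre-incubation, 0.6 mM pNA substrate cleaved 5 min at 37 °C, monitored at 405 nm.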

T1 sequence (P20231 31-275): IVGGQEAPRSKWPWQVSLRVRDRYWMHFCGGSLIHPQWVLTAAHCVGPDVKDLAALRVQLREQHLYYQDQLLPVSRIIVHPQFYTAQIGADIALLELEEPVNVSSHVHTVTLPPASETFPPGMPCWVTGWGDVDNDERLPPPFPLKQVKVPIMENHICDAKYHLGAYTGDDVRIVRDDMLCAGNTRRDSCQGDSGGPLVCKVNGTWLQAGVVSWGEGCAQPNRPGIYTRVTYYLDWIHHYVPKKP

The molecule `N=C(N)c1ccc(CCc2nc3cc(C(=O)N(Cc4ccc(CN)cc4)Cc4ccc5ccccc5c4)ccc3n2CCC2CCCCC2)cc1` [Example 233, 2-[2-(4-amidinophenyl)ethyl]-1-(2-cyclohexylethyl)-benzimidazol-5-yl-carboxylic acid-N-[4-(amino-methyl)-benzyl]-N-(2-naphthylmethyl)-amide] displayed an inhibition at 10 µM of 53%.

The molecule `CCOCCCn1c(CCc2ccc(C(=N)N)cc2)nc2cc(C(=O)N(CCN)CC3CCCCC3)ccc21` [Example 342, 2-[2-(4-amidinophenyl)ethyl]-1-(3-ethoxypropyl)-benzimidazol-5-yl-carboxylic acid-N-(2-aminoethyl)-N-cyclohexylmethyl-amide] returned an IC50 of 275 nM and an inhibition at 10 µM of 75%.

`N=C(N)c1ccc(CCc2nc3cc(C(=O)N(Cc4ccccc4)Cc4ccc(CN)cc4)ccc3n2CCCN2CCOCC2)cc1` [Example 113, 2-[2-(4-amidinophenyl)ethyl]-1-[3-(morpholin-4-yl)-propyl]-benzimidazol-5-yl-carboxylic acid-N-[4-(amino-methyl)-benzyl]-N-benzyl-amide] had an inhibition at 10 µM of 56%.

In the case of `CN(Cc1cccnc1)C(=O)c1ccc2c(c1)nc(CCc1ccc(C(=N)N)cc1)n2C` [Example 1, 2-[2-(4-Amidinophenyl)ethyl]-1-methyl-benzimidazol-5-yl-carboxylic Acid-N-(pyridin-3-yl-methyl)-N-methyl-amide-hydrochloride], the IC50 was determined as 887 nM.

As to “2-[2-(4-amidinophenyl)ethyl]-1-cyclopropylmethyl-benzimidazol-5-yl-carboxylic acid-N-[4-(amino-methyl)-benzyl]-N-(2-pyridyl)-amide [Example 122]”, the IC50 was found to be 515 nM and the “% Inhibition (10 μM)” value is given as 70%.

On to `N=C(N)c1ccc(CCc2nc3cc(C(=O)N(CCN)CCCc4ccccc4)ccc3n2CC2CCCO2)cc1` (stereo not drawn) [Example 370, 2-[2-(4-amidinophenyl)ethyl]-1-(tetrahydrofuran-2-yl-methyl)-benzimidazol-5-yl-carboxylic acid-N-(2-aminoethyl)-N-(3-phenylpropyl)-amide], for which the inhibition at 10 µM came out at 53%.

`N=C(N)c1ccc(CCc2nc3cc(C(=O)N(CCN)CCCc4ccccc4)ccc3n2Cc2cccs2)cc1` [Example 371, 2-[2-(4-amidinophenyl)ethyl]-1-(2-thiophenyl-methyl)-benzimidazol-5-yl-carboxylic acid-N-(2-aminoethyl)-N-(3-phenylpropyl)-amide] yielded an inhibition at 10 µM of 55%.

For the molecule `CCCCN(CCN)C(=O)c1ccc2c(c1)nc(CCc1ccc(C(=N)N)cc1)n2CCc1ccccc1` [Example 283, 2-[2-(4-amidinophenyl)ethyl)-1-(2-phenylethyl)-benzimidazol-5-yl-carboxylic acid-N-(2-aminoethyl)-N-n-butyl-amide], at 10 µM the inhibition was 59%.

The molecule `CCCCN(Cc1ccc(CN)cc1)C(=O)c1ccc2c(c1)nc(CCc1ccc(C(=N)N)cc1)n2CCCOCC` [Example 86, 2-[2-(4-amidinophenyl)ethyl]-1-(3-ethoxypropyl)-benzimidazol-5-yl-carboxylic acid-N-[4-(amino-methyl)-benzyl]-N-n-butyl-amide] had an IC50 of 135 nM and an inhibition at 10 µM of 72%.

As to `N=C(N)c1ccc(CCc2nc3cc(C(=O)N(Cc4ccc(CN)cc4)Cc4ccc5ccccc5c4)ccc3n2CCCN2CCOCC2)cc1` [Example 241, 2-[2-(4-amidinophenyl)ethyl]-1-[3-(morpholin-4-yl)-propyl]-benzimidazol-5-yl-carboxylic acid-N-[4-(amino-methyl)-benzyl]-N-(2-naphthylmethyl)-amide], 10 µM produced 69% inhibition.

Take `N=C(N)c1ccc(CCc2nc3cc(C(=O)N(Cc4ccc(CN)cc4)CC4CCCCC4)ccc3n2CC2CCCO2)cc1` (stereo not drawn) [Example 162, 2-[2-(4-amidinophenyl)ethyl]-1-(tetrahydrofuran-2-yl-methyl)-benzimidazol-5-yl-carboxylic acid-N-[4-(amino-methyl)-benzyl]-N-cyclohexylmethyl-amide]: the inhibition at 10 µM worked out at 60%.

On to `Cc1ccccc1N1CCCN(C(=O)c2ccc3c(c2)nc(CCc2ccc(C(=N)N)cc2)n3C)CC1` [Example 15, 2-[2-(4-Amidinophenyl)-ethyl]-1-methyl-benzimidazol-5-yl-carboxylic Acid-[N′-(2-methyl-phenyl)-diazepide]-hydrochloride], for which the IC50 stood at 98 nM.

In turn, `N=C(N)c1ccc(CCc2nc3cc(C(=O)N(CCN)Cc4ccccc4F)ccc3n2CC2CC2)cc1` [Example 410, 2-[2-(4-amidinophenyl)ethyl]-1-cyclopropylmethyl-benzimidazol-5-yl-carboxylic acid-N-(2-aminoethyl)-N-(2-fluorobenzyl)-amide] returned an IC50 of 626 nM.

On to “2-[2-(4-amidinophenyl)ethyl]-1-(3-di-n-butylaminopropyl)-benzimidazol-5-yl-carboxylic acid-N-[4-(amino-methyl)-benzyl]-N-(2-pyridyl)-amide [Example 119]”, for which the “% Inhibition (10 μM)” value is on record as 57%.

Take `N=C(N)c1ccc(CCc2nc3cc(C(=O)N(Cc4ccc(CN)cc4)Cc4ccccc4F)ccc3n2CCCNC(=O)Cc2ccccc2)cc1` [Example 216, 2-[2-(4-amidinophenyl)ethyl]-1-[3-(benzylcarbonylamino)-propyl]-benzimidazol-5-yl-carboxylic acid-N-[4-(amino-methyl)-benzyl]-N-(2-fluorobenzyl)-amide]: 10 µM produced 65% inhibition.

As to `COc1cccc(CN(Cc2ccc(CN)cc2)C(=O)c2ccc3c(c2)nc(CCc2ccc(C(=N)N)cc2)n3CC2CC2)c1` [Example 74, 2-[2-(4-amidinophenyl)ethyl]-1-cyclopropylmethyl-benzimidazol-5-yl-carboxylic acid-N-[4-(amino-methyl)-benzyl]-N-(3-methoxybenzyl)-amide], the inhibition at 10 µM was 66%.

Molecule `Cn1c(CCc2ccc(C(=N)N)cc2)nc2cc(C(=O)N(CCC(=N)N)CCc3ccccc3)ccc21` [Example 24, 2-[2-(4-Amidinophenyl)-ethyl]-1-methyl-benzimidazol-5-yl-carboxylic Acid-N-(2-amidinoethyl)-N-(2-phenylethyl)-amide-dihydrochloride] registered an IC50 of 16 nM.

As for `CCCCN(CCCC)CCCn1c(CCc2ccc(C(=N)N)cc2)nc2cc(C(=O)N(Cc3ccc(CN)cc3)Cc3cccc(OC)c3)ccc21` [Example 71, 2-[2-(4-amidinophenyl)ethyl]-1-(3-di-n-butylaminopropyl)-benzimidazol-5-yl-carboxylic acid-N-[4-(amino-methyl)-benzyl]-N-(3-methoxybenzyl)-amide], the inhibition at 10 µM worked out at 58%.

Take `CCCCN(CCCC)CCCn1c(CCc2ccc(C(=N)N)cc2)nc2cc(C(=O)N(CCCC)Cc3ccc(CN)cc3)ccc21` [Example 87, 2-[2-(4-amidinophenyl)ethyl]-1-(3-di-n-butylaminopropyl)-benzimidazol-5-yl-carboxylic acid-N-[4-(amino-methyl)-benzyl]-N-n-butyl-amide]: the inhibition at 10 µM came out at 59%.

`CCOCCCn1c(CCc2ccc(C(=N)N)cc2)nc2cc(C(=O)N(Cc3ccc(CN)cc3)Cc3ccc4ccccc4c3)ccc21` [Example 230, 2-[2-(4-amidinophenyl)ethyl]-1-(3-ethoxypropyl)-benzimidazol-5-yl-carboxylic acid-N-[4-(amino-methyl)-benzyl]-N-(2-naphthylmethyl)-amide] showed a half-inhibitory concentration (IC50) of 153 nM and an inhibition at 10 µM of 61%.

The inhibition is the percentage by which the read-out fell short of the control. A low value points to a weak effect. The term IC50 denotes the concentration that gives 50% inhibition.

The record behind these values is patent US6512000B1, “Aminocarbonyl-substituted benzimidazoles having tryptase-inhibitory activity” (Boehringer Ingelheim Pharma KG, priority 1999, dated 2003).
